Measurements as given in US20240166596A1, “SULFAMOYL BENZENE DERIVATIVES AND USES THEREOF” (AphioTx Inc., priority 2021, published 2024).

How the values were obtained:
Panx1 channel = biological target: T1, Panx1 channel (Mus musculus, UniProt Q9JIP4); test: YO-PRO-1 dye uptake assay in BV-2 microglia-like cells (BzATP stimulation); type: cell-based; details: BV-2 cells
T1 construct: endogenous in cells; host or cells: BV-2 microglia-like cells
Method: After plating into 96 well plates, cell culture media was removed and BV-2 cells were incubated in extracellular solution (ECS) (140 mM NaCl, 4.5 mM KCl, 1.3 mM CaCl2, 10 mM HEPES, and 33 mM glucose; pH7.35, osmolarity 315 mOsm) containing YO-PRO-1 dye (2.5 μM, Invitrogen). After a 5 minute baseline recording, cells were stimulated with 3′-O-(4-benzoyl)benzoyl adenosine 5′-triphosphate (BzATP) (150 μM, Toronto Research Chemicals) and dye-uptake was recorded for 30 minutes. Cell viability was assessed immediately after the 30 minute recording by application of ionomycin (1 μM, Sigma). […] YO-PRO-1 fluorescent emission (491/509) was detected using a FilterMax F5 plate reader (Molecular Devices). Drugs used include (−)-norepinephrine (100 pM-1 μM, Sigma), probenecid (1 mM, Life Technologies), and Compound 1 (10 nM, Derksen et al). Drugs were bath applied in ECS containing YO-PRO-1 dye and incubated at 37° C. for 10 minutes prior to BzATP stimulation. Fluorescent emission at 30 minutes post-BzATP was calculated as an average of the entire imaging field as percent change from baseline, and responses at 30 minutes were averaged over multiple independent experiments. Individual traces of BV-2 YO-PRO-1 dye uptake were taken at 10 minute intervals and represent the average response of all BV-2 cells in the recorded view from a subset of experiments.
BV-2 microglia-like cells were maintained in DMEM (Gibco) containing 5% fetal bovine serum (Gibco) and 1% penicillin-streptomycin (Gibco) with 5% CO2.
The compounds tested were designed to more readily penetrate the blood brain barrier and were therefore predicted to require a lower dose to produce similar effects. Prior to testing the compounds in animals, the compounds were first tested in BV2 microglia-like cells using the YO-PRO-1 Dye Uptake Assay. By using this assay, Panx1 channel activity in response to BzATP stimulation of P2X7, an upstream receptor that causes Panx1 pore formation can be assessed. YO-PRO-1 is a large molecular weight dye that can only enter the cell through large pore ion channels such as Panx1, therefore its uptake correlates with Panx1 channel opening. BzATP stimulation causes a significant increase in YO-PRO-1 dye uptake in cells pre-treated with ECS and vehicle solution (0.1% DMSO) (FIG. 1, B).

C57BL/6J mice [1] = test: Naloxone-precipitated morphine withdrawal, composite withdrawal score; type: in vivo; details: for Withdrawal behaviors: 60 minutes prior to naloxone
Method: Adult male C57BL/6J (7-9 weeks) mice were used. Mice were housed under 12/12 hour light/dark cycles with ad libitum access to food and water. Mice were randomly allocated to different test groups. All experiments were approved by the University of Calgary Animal Care Committee and are in accordance with the guidelines of the Canadian Council on Animal Care.
Morphine sulfate (MS, PCCA) prepared in 0.9% sterile saline solution was injected i.p. into male C57BLJ6J (20-30g) mice. Mice received ascending doses of morphine (i.p.) at 8 hours intervals: day 1, 10mg/kg; day 2, 20 mg/kg; day 3, 30 mg/kg; day 4, 40mg/kg. On day 5, mice received a morning injection of morphine (50 mg/kg). A subset of mice received probenecid (15, 25, and 50 mg/kg i.p., Invitrogen) or Compound 1 (0.1, 0.5 and 1 mg/kg) 1 hour following morphine. Mice then received i.p. naloxone (2 mg/kg, naloxone hydrochloride dihydrate, Sigma) 2 hours following morphine to rapidly induce opioid withdrawal. Control mice received equivalent volumes of 0.9% saline or appropriate vehicle solution (0.1% DMSO in saline) and were challenged with naloxone on day 5. Withdrawal behaviors were then scored for 30 minutes post naloxone injection. Behaviors were scored for occurrence and then scaled for severity at 5-minute intervals. Behaviors that were assigned a standardized score between 0-3 depending on severity were jumping, headshakes, wet-dog shakes, chewing/licking, and teeth chattering. Behaviors that were scored 1 point for presence during a 5-minute interval include piloerection and tremors/twitching. The mice were then weighed following the 30 minutes, and the weight difference was assigned a standardized score dependent on the weight change between 0-3 as well. The scaled and present/absent signs were compiled over the 30 minutes to produce a composite withdrawal score.
All data are presented as the mean±standard error mean (s.e.m), and each circle represents an individual animal or experiment. Tests of statistical difference were performed with GraphPad Prism 6 using either an ordinary one-way ANOVA with posthoc Dunnet test, or a two-way ANOVA with post hoc Sidak test. Sample sizes are consistent with those reported in similar studies and provide sufficient power to detect changes with the appropriate statistical analysis. For all experiments, a criterion a level was set at 0.05.

C57BL/6 mice = test: Conditioned place aversion (CPA) after naloxone-precipitated withdrawal; type: in vivo; details: for CPA: 0.1 mg/kg i.p. as printed
Excerpt: Adult male C57BL/6 mice (7-14 weeks old) were used for conditioned place aversion experiments (CPA). Animals were group housed under reverse light-dark cycle with ad libitum access to food and water and were randomly allocated to different test groups. All procedures were approved by the University of Calgary and Washington University Animal Care Committees and are in accordance with the guidelines of the Canadian Council on Animal Care and the US National Institutes of Health Guide for the Care of Use of Laboratory Animals.
Place conditioning was performed in a custom-built clear plexiglass apparatus (28×28×19 cm) divided into two conditioning chambers distinct in tactile and visual cues. All locomotor behaviours were recorded using monochrome GigE cameras and quantified offline using EthoVision XT 11 software (Noldus). The CPA score was calculated by subtracting time spent in the conditioned chamber during baseline (pre-test) from time spent in the same chamber postconditioning. Mice were placed in a two-chamber conditioning apparatus and allowed free access to both chambers for 15 min to assess baseline preference. Mice were treated with escalating doses of morphine, control animals received equivalent volumes of 0.9% sterile saline. Two hours after the final morphine or saline injection on day 5, mice were injected with naloxone and confined to one side of the conditioning apparatus for 30 min. The conditioned place aversion (CPA) test occurred 1 and 7 days post-conditioning, where mice were allowed free access to the conditioning apparatus for 15 min. […]
Unpaired t tests were applied to compare differences between two groups, one-way ANOVA with Bonferroni post hoc tests were applied to compare differences between three or more groups. […] All data are expressed as mean±SEM. […] After assessing the normality of sample data using Shapiro-Wilk test, statistical significance was determined by two-way repeated-measures ANOVA followed by two-tailed Sidak post hoc test. All data were presented as mean±SEM and analyzed using GraphPad Prism 9 (GraphPad Software, Inc., California).

C57BL/6J mice [2] = test: Naloxone-precipitated morphine withdrawal, composite withdrawal score; type: in vivo; details: 0.5 mg/kg, 30 minutes before withdrawal

T1 sequence (Q9JIP4 whole entry): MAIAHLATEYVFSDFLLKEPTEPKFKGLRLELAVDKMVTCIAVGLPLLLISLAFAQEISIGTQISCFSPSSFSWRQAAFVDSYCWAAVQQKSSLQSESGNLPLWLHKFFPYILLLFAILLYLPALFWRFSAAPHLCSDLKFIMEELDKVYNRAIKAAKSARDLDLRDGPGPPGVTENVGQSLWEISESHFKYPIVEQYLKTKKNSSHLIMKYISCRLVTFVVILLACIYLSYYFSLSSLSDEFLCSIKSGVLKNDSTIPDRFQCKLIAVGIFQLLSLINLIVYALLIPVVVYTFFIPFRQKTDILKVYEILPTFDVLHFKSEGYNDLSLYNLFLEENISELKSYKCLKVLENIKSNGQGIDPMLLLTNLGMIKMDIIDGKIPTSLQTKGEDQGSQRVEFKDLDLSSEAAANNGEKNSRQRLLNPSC

With CCCN(CCC)S(=O)(=O)c1ccc(C(O)(C(F)(F)F)C(F)(F)F)cc1 [Compound 1, 4-(1,1,1,3,3,3-hexafluoro-2-hydroxypropan-2-yl)-N,N-dipropylbenzenesulfonamide] the “Potency at inhibiting Panx1 channel opening relative to probenecid” value (Panx1 channel) was “more potent than probenecid”, the “Concentration blocking Panx1 channel activity, fold lower than probenecid” value (Panx1 channel; Compound 1 10 nM vs probenecid 1 mM) was 100,000 fold and the “Panx1 channel activity (BzATP-stimulated YO-PRO-1 dye uptake)” value (Panx1 channel; Compound 1 10 nM, 10 min pre-treatment, BzATP 150 μM, 30 min) was “significantly blocked”. For the same compound, the Withdrawal behaviors (C57BL/6J mice [1]; 0.1 mg/kg) was “significantly attenuated”, the Withdrawal behaviors (C57BL/6J mice [1]; 0.5 mg/kg) was “significantly attenuated” and the Withdrawal behaviors (C57BL/6J mice [1]; 1 mg/kg) was “significantly attenuated”. The “Effective dose, fold lower than probenecid” value (C57BL/6J mice [1]; 0.1-1 mg/kg vs probenecid 50 mg/kg) was 50-500 fold, the CPA (C57BL/6 mice; 1 day after naloxone-precipitated withdrawal) was “significantly less CPA” and the CPA (C57BL/6 mice; 1 day and 7 days after naloxone-precipitated withdrawal) was “significantly less CPA”. The “CPA score (aversion to the naloxone-paired chamber)” value (C57BL/6 mice; 0.5 mg/kg i.p., morphine-dependent mice, vs vehicle) was “significant reduction in aversion” and the Withdrawal behaviors (C57BL/6J mice [2]) was “not effective”.
